Data on 19 compounds can be found in patent publication US8609692B2, “TRPV1 antagonists” (AbbVie Inc., priority 2008, dated 2013).

The nature of data set [1]: Rat telemetry protocol (core body temperature). The settings on record: core body temperature of rats at one hour post dosing (100 μmol/kg, p.o.), relative to vehicle. Format: in vivo. How it is done:
Male, Sprague Dawley rats, 225-250 grams were anesthetized with Sevoflurane (Abbott Laboratories). Rats were placed on a heating pad and covered with a sterile surgical drape. A ventral midline abdominal incision was made and sterile cotton tip applicators were used to gently move internal tissue and expose the abdominal aorta for implantation of the telemetry catheter (Data Sciences International; TL11M2-050-PXT). Blood flow was temporarily stopped to the lower extremities (5-7 min) with Diffenbach clamps to allow the insertion of the telemetry catheter into the abdominal aorta. Once inserted, a sterile cellulose patch was placed over the catheter/aorta and secured using a small amount of tissue adhesive (Vetbond, 3M). Once catheter placement was complete, the clamps were removed and blood flow was restored to the lower extremities. The transmitter was placed in the intraperitoneal cavity. The transmitter suture rib was sewn into the abdominal sutures to secure it in place. The skin was closed using sterile wound clips and the animal removed from Sevoflurane. Buprenex ([…] s.c.; Phoenix) was administered for post-operative analgesia. Animals were maintained on a heating pad until ambulatory, and then individually housed with food and water ad lib. Surgical staples were removed after 7-10 days post-implantation. Rats were allowed a 2-week post-surgical recovery period before treatment with test compound. Oral dosing (p.o.) was at time zero, with rats receiving a single dose of vehicle (10% EtOH, 20% Tween-80, 70% PEG-400) or a 100 μmol/kg dose of compound dissolved in vehicle. Temperature measurements were recorded every 15 minutes for the duration of the study (24 hours).
The term “core body temperature” as used herein, means the temperature measured in the intraperitoneal cavity.

For data set [2], the target named is T1, human TRPV1 receptor (hTRPV1) (Homo sapiens, UniProt Q8NER1).
T1 construct: expressed in transfected cells
Nature of the data set: Capsaicin activation assay (Ca2+ influx, FLIPR). Format: cell-based. The settings on record: 0.05 μM capsaicin, 1321N1 cells expressing hTRPV1. How it is done:
Dulbecco's modified Eagle medium (D-MEM) (with 4.5 mg/mL glucose) and fetal bovine serum were obtained from Hyclone Laboratories, Inc. (Logan, Utah). Dulbecco's phosphate-buffered saline (D-PBS) (with 1 mg/mL glucose and 3.6 mg/l Na pyruvate, without phenol red), L-glutamine, hygromycin B, and Lipofectamine® were obtained from Life Technologies (Grand Island, N.Y.). G418 sulfate was obtained from Calbiochem-Novabiochem Corp. (San Diego, Calif.). Capsaicin (8-methyl-N-vanillyl-6-nonenamide) was obtained from Sigma-Aldrich, Co. (St. Louis, Mo.). Fluo-4 AM (N-[4-[6-[(acetyloxy)methoxy]-2,7-difluoro-3-oxo-3H-xanthen-9-yl]-2-[2-[2-[bis[2-[(acetyloxy)methoxy]-2-oxyethyl]amino]-5-methyl-phenoxy]ethoxy]phenyl]-N-[2-[(acetyloxy)methoxy]-2-oxyethyl]-glycine, (acetyloxy)methyl ester) was purchased from Molecular Probes (Eugene, Oreg.).
The cDNAs for the human TRPV1 receptor (hTRPV1) were isolated by reverse transcriptase-polymerase chain reaction (RT-PCR) from human small intestine poly A+RNA supplied by Clontech (Palo Alto, Calif.) using primers designed surrounding the initiation and termination codons identical to the published sequences (Hayes et al. Pain 2000, 88, 205-215). The resulting cDNA PCR products were subcloned into pCIneo mammalian expression vector (Promega) and fully sequenced using fluorescent dye-terminator reagents (Prism, Perkin-Elmer Applied Biosystems Division) and a Perkin-Elmer Applied Biosystems Model 373 DNA sequencer or Model 310 genetic analyzer. Expression plasmids encoding the hTRPV1 cDNA were transfected individually into 1321N1 human astrocytoma cells using Lipofectamine®. Forty-eight hours after transfection, the neomycin-resistant cells were selected with growth medium containing 800 μg/mL Geneticin (Gibco BRL). Surviving individual colonies were isolated and screened for TRPV1 receptor activity. Cells expressing recombinant homomeric TRPV1 receptors were maintained at 37° C. in D-MEM containing 4 mM L-glutamine, 300 μg/mL G418 (Cal-biochem) and 10% fetal bovine serum under a humidified 5% CO2 atmosphere.
The functional activity of compounds at the TRPV1 receptor was determined with a Ca^2+ influx assay and measurement of intracellular Ca^2+ levels ([Ca^2+]i). All compounds were tested over an 11-point half-log concentration range. Compound solutions were prepared in D-PBS (4× final concentration), and diluted serially across 96-well v-bottom tissue culture plates using a Biomek 2000 robotic automation workstation (Beckman-Coulter, Inc., Fullerton, Calif.). A 0.2 μM solution of the TRPV1 agonist capsaicin was also prepared in D-PBS. The fluorescent Ca^2+ chelating dye Fluo-4 AM was used as an indicator of the relative levels of [Ca^2+]i in a 96-well format using a Fluorescence Imaging Plate Reader (FLIPR) (Molecular Devices, Sunnyvale, Calif.). Cells were grown to confluency in 96-well black-walled tissue culture plates. Then, prior to the assay, the cells were loaded with 100 μL per well of Fluo-4 AM (2 μM, in D-PBS) for 1-2 hours at 23° C. Washing of the cells was performed to remove extracellular Fluo-4 AM (2×1 mL D-PBS per well), and afterward, the cells were placed in the reading chamber of the FLIPR instrument. 50 μL of the compound solutions were added to the cells at the 10 second time mark of the experimental run. Then, after a 3-minute time delay, 50 μL of the capsaicin solution was added at the, 190 second time mark (0.05 μM final concentration)(final volume=200 μL) to challenge the TRPV1 receptor. Time length of the experimental run was 240 seconds. Fluorescence readings were made at 1 to 5 second intervals over the course of the experimental run. The peak increase in relative fluorescence units (minus baseline) was calculated from the 190 second time mark to the end of the experimental run, and expressed as a percentage of the 0.05 μM capsaicin (control) response. […]

T1 sequence (Q8NER1 whole entry): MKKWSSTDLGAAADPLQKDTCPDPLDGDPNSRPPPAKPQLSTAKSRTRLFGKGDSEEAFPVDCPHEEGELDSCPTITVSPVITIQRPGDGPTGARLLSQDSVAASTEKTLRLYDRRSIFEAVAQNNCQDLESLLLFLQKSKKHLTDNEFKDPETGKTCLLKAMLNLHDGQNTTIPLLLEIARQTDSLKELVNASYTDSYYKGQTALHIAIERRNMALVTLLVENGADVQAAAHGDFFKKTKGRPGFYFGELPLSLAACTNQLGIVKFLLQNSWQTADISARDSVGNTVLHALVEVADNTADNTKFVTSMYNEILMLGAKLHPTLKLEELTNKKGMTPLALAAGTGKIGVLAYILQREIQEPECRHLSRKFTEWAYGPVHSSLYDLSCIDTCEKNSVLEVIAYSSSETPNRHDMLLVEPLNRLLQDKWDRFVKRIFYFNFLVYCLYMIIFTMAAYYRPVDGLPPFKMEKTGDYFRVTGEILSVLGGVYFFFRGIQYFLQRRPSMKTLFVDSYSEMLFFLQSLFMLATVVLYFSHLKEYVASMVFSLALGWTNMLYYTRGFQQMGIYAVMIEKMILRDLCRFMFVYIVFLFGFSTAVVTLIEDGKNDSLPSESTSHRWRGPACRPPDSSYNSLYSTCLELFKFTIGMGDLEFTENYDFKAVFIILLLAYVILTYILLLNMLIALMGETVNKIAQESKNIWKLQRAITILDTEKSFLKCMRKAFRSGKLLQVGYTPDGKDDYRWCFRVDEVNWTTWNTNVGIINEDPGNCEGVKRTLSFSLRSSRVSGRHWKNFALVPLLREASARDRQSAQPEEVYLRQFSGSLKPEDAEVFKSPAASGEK

Usually IC50 stands for the midpoint of a concentration-inhibition curve. Lower therefore signals inhibition by little substance. On to `CC1(C)C[C@@H](NC(=O)Nc2cccc3cnccc23)c2ccc(OC(F)(F)F)cc2O1` [Example 40, N-[(4R)-2,2-dimethyl-7-(trifluoromethoxy)-3,4-dihydro-2H-chromen-4-yl]-N′-isoquinolin-5-ylurea], for which the “Δ Temp” value in data set [1] is 0.8 °C. This compound came in with an IC50 in data set [2] of 5 nM.
For `Cn1ncc2c(NC(=O)N[C@@H]3CC(C)(C)Oc4c3cccc4C(F)(F)F)cccc21` [Example 42, N-[(4R)-2,2-dimethyl-8-(trifluoromethyl)-3,4-dihydro-2H-chromen-4-yl]-N′-(1-methyl-1H-indazol-4-yl)urea] the same measures were 0.6 °C and 20 nM.
For `CC1(C)C[C@@H](NC(=O)Nc2cccc3ccncc23)c2ccc(C(F)(F)F)cc2O1` [Example 43, N-[(4R)-2,2-dimethyl-7-(trifluoromethyl)-3,4-dihydro-2H-chromen-4-yl]-N′-isoquinolin-8-ylurea] the same measures were 1.5 °C and 28 nM.
Regarding `CC1(C)C[C@@H](NC(=O)Nc2cccc3[nH]ncc23)c2cccc(C(F)(F)F)c2O1` [Example 45, N-[(4R)-2,2-dimethyl-8-(trifluoromethyl)-3,4-dihydro-2H-chromen-4-yl]-N′-1H-indazol-4-ylurea], the “Δ Temp” value in data set [1] is 0.5 °C. In addition, 11 nM corresponded to half-maximal inhibition in data set [2] (IC50).
For `CCC1(CC)C[C@@H](NC(=O)Nc2cccc3c2cnn3C)c2ccc(F)cc2O1` [Example 46, N-[(4R)-2,2-diethyl-7-fluoro-3,4-dihydro-2H-chromen-4-yl]-N′-(1-methyl-1H-indazol-4-yl)urea] the same measures were 0.7 °C and 17 nM.
In the same order, the values of `CCC1(CC)C[C@@H](NC(=O)Nc2cccc3c2cnn3C)c2ccc(C(F)(F)F)cc2O1` [Example 49, N-[(4R)-2,2-diethyl-7-(trifluoromethyl)-3,4-dihydro-2H-chromen-4-yl]-N′-(1-methyl-1H-indazol-4-yl)urea] are 1.3 °C and 71 nM.
For `CCC1(CC)C[C@@H](NC(=O)Nc2cccc3c2C[C@H](O)CC3)c2cccc(F)c2O1` [Example 52, N-[(4R)-2,2-diethyl-8-fluoro-3,4-dihydro-2H-chromen-4-yl]-N′-[(7R)-7-hydroxy-5,6,7,8-tetrahydronaphthalen-1-yl]urea] the same measures were 1.2 °C and 20 nM.
`CCC1(CC)C[C@@H](NC(=O)Nc2cccc3c2C[C@H](O)CC3)c2cc(F)ccc2O1` [Example 54, N-[(4R)-2,2-diethyl-6-fluoro-3,4-dihydro-2H-chromen-4-yl]-N′-[(7R)-7-hydroxy-5,6,7,8-tetrahydronaphthalen-1-yl]urea]: in data set [1], the “Δ Temp” value worked out at 1.0 °C. In addition, in data set [2], 38 nM corresponded to half-maximal inhibition (IC50).
In the same order, the values of `Cn1ncc2c(NC(=O)N[C@@H]3CCOc4c3cccc4C(F)(F)F)cccc21` [Example 59, N-(1-methyl-1H-indazol-4-yl)-N′-[(4R)-8-(trifluoromethyl)-3,4-dihydro-2H-chromen-4-yl]urea] are 0.5 °C and 16 nM.
For `CCC1(CC)C[C@@H](NC(=O)Nc2cccc3c2cnn3C)c2cc(F)cc(F)c2O1` [Example 60, N-[(4R)-2,2-diethyl-6,8-difluoro-3,4-dihydro-2H-chromen-4-yl]-N′-(1-methyl-1H-indazol-4-yl)urea] the same measures were 0.7 °C and 22 nM.
As to `O=C(Nc1cccc2[nH]ncc12)N[C@@H]1CCOc2c1cccc2C(F)(F)F` [Example 63, N-1H-indazol-4-yl-N′-[(4R)-8-(trifluoromethyl)-3,4-dihydro-2H-chromen-4-yl]urea], the “Δ Temp” value in data set [1] turned out to be 1.0 °C. Moreover, the half-inhibitory concentration (IC50) in data set [2] was determined as 10 nM.
`CCC1(CC)C[C@@H](NC(=O)Nc2cccc3c2C[C@@H](O)CC3)c2ccc(F)cc2O1` [Example 71, N-[(4R)-2,2-diethyl-7-fluoro-3,4-dihydro-2H-chromen-4-yl]-N′-[(7S)-7-hydroxy-5,6,7,8-tetrahydronaphthalen-1-yl]urea]: the “Δ Temp” value in data set [1] is 0.5 °C. The compound further yielded an IC50 in data set [2] of 9 nM.
`CCCC1(CCC)C[C@@H](NC(=O)Nc2cccc3c2C[C@H](O)CC3)c2cc(F)ccc2O1` [Example 72, N-[(4R)-6-fluoro-2,2-dipropyl-3,4-dihydro-2H-chromen-4-yl]-N′-[(7R)-7-hydroxy-5,6,7,8-tetrahydronaphthalen-1-yl]urea]: in data set [1], the “Δ Temp” value was 0.7 °C. Further, the IC50 in data set [2] was found to be 7 nM.
In the case of `CCC1(CC)C[C@@H](NC(=O)Nc2cccc3c2C[C@@H](O)CC3)c2cc(F)ccc2O1` [Example 73, N-[(4R)-2,2-diethyl-6-fluoro-3,4-dihydro-2H-chromen-4-yl]-N′-[(7S)-7-hydroxy-5,6,7,8-tetrahydronaphthalen-1-yl]urea], the “Δ Temp” value in data set [1] stood at 0.9 °C. Moreover, inhibition in data set [2] was half-maximal at 9 nM (IC50).
In the same order, the values of `CCC1(CC)C[C@@H](NC(=O)Nc2cccc3c2C[C@H](O)CC3)c2ccc(F)cc2O1` [Example 74, N-[(4R)-2,2-diethyl-7-fluoro-3,4-dihydro-2H-chromen-4-yl]-N′-[(7R)-7-hydroxy-5,6,7,8-tetrahydronaphthalen-1-yl]urea] are 0.9 °C and 13 nM.
For `CCC1(CC)C[C@@H](NC(=O)Nc2cccc3c2C[C@H](O)CC3)c2ccc(Cl)cc2O1` [Example 75, N-[(4R)-7-chloro-2,2-diethyl-3,4-dihydro-2H-chromen-4-yl]-N′-[(7R)-7-hydroxy-5,6,7,8-tetrahydronaphthalen-1-yl]urea], the “Δ Temp” value in data set [1] was found to be 1.0 °C. Further, half-maximal inhibition in data set [2] (IC50) was put at 10 nM.
For `CCC1(CC)C[C@@H](NC(=O)Nc2cccc3c2C[C@@H](O)CC3)c2ccc(Cl)cc2O1` [Example 76, N-[(4R)-7-chloro-2,2-diethyl-3,4-dihydro-2H-chromen-4-yl]-N′-[(7S)-7-hydroxy-5,6,7,8-tetrahydronaphthalen-1-yl]urea] the same measures were 1.3 °C and 9 nM.
For `CCC1(CC)C[C@@H](NC(=O)Nc2cccc3c2cnn3C)c2cccc(C(F)(F)F)c2O1` [Example 77, N-[(4R)-2,2-diethyl-8-(trifluoromethyl)-3,4-dihydro-2H-chromen-4-yl]-N′-(1-methyl-1H-indazol-4-yl)urea] the same measures were 1.0 °C and 37 nM.
In the same order, the values of `CCC1(CC)C[C@@H](NC(=O)Nc2cccc3c2cnn3C)c2ccc(Cl)cc2O1` [Example 78, N-[(4R)-7-chloro-2,2-diethyl-3,4-dihydro-2H-chromen-4-yl]-N′-(1-methyl-1H-indazol-4-yl)urea] are 0.6 °C and 13 nM.
